In patent US20060167021A1, “Inhibition of src for treatment of reperfusion injury related to revascularization” (Caritas St. Elizabeth's Medical Center of Boston, Inc., priority 2002, published 2006):
“And” between values parts separate entries of the source, which are not always exact repeats. Equal entries are not always repeated.

Key:
Sprague-Dawley rats [1] = experiment: Rat acute MI model (permanent LAD ligation), infarct size by Evans blue/TTC; assay type: in vivo
Method: (§1) Generally, myocardial Infarction (MI) was induced by ligating the left anterior descending (LAD) coronary artery in Sprague-Dawley rats or in C57 black mice. Intraperitoneal injections of the inhibitors were delivered after the induction of infarction. High resolution magnetic resonance imaging (MRI), dry weight measurements, infarct size, heart volume and area at risk were determined 24 hours after induction of MI. Survival rates and echocardiography were determined at 4 weeks post-MI.
(§2) After 24 hours, 10% Evans blue (Sigma, St. Louis, Mo.) was injected intravenously before sacrifice. Hearts were removed and cut in three equivalent sections distal to the occluding LAD suture and one proximal. The distal sections were digitized to evaluate the nonperfused area at risk using NIH Image software. Sections were stained with 2% triphenyltetrazolium chloride ([…]) (Sigma, St. Louis, Mo.) to delineate ischemic area. Infarct size is presented as the percentage of area at risk to eliminate variability. For example, the area at risk (AAR) is measured as a function of (white+red area)/(blue+white+red area); the % infarct is measured as a function of (white area (% of LV area))/(blue+white+red area); and the % infarct/AAR is calculated as a function of (white area (% of AAR))/(white+red area).
Essentially, MI was induced in rats as described above. […] Control rats were mock-treated with the dimethylsulfoxide (DMSO) vehicle. Tests were performed 24 hours post-MI induction.
To study the kinetics of this response, PP1 was administered at various times following occlusion. Essentially, MI was induced in rats as described above. […] Control rats were mock-treated with the dimethylsulfoxide (DMSO) vehicle. Tests were performed 24 hours post-MI induction.

C57 black mice = experiment: Mouse MI model (permanent occlusion), infarct size; assay type: in vivo
Method: as §1, §2

Sprague-Dawley rats [2] = experiment: Ex-vivo myocardial water content (wet/dry weights); assay type: in vivo, rat
Method: (§3) In-vivo water content was evaluated using MRI performed serially on anesthetized rats 24 hours following MI using a 4.7-T MR scanner (Bruker Billerica Mass.). […] MRI experiments to quantify T2 values of the myocardium were conducted by applying an ECG and respiratory-triggered multiecho spin echo sequence (number of echoes, 8; echo time, 6.6 ms; slice thickness, 1.0 mm; inplane resolution, 430 μm^2; total slices, 6-7). The trigger delay was chosen to capture all echoes during full diastole to avoid motion artifact between echoes. Corresponding gradient echo images were also acquired for each slice to clearly delineate the blood/myocardium border for region of interest evaluation of the spin echo sequence. Because of their increased water content, edematous regions are expected to have a longer T2 relaxation than nonedematous regions. Regions with T2>40 ms (two standard deviations above the mean of normally perfused myocardium) were delineated and the volume calculated as a percentage of the total LV myocardial volume. In addition, ex-vivo myocardial water content of proximal heart sections was measured as the percentage difference between initial wet and dry weights after 24 hours incubation at 80° C. Transthoracic echocardiography (SONOS 5500, Agilent Technologies, Palo Alto, Calif.) was performed to evaluate LV function before (baseline) and 4 weeks after MI. For this analysis, rats were anesthetized with 0.6 ml/kg ketamine intraperitoneally.
Rats were treated with 0.5 mg/kg, 1.5 mg/kg, or a placebo post-MI induction and the myocardial water content was compared.

Sprague-Dawley rats [3] = experiment: In-vivo MRI T2 mapping of edematous myocardium; set-up: species or system rat
From the text: Because of their increased water content edematous regions are expected to have a longer 72 relaxation than nonedematous regions. As a result, T2 maps of the myocardium can be used as an index of water content. Regions with T2>40 ms (two standard deviations above normally perfused myocardium) were delineated as an index of edema.
Because of their increased water content, edematous regions are expected to have a longer T2 relaxation than nonedematous regions and therefore T2 maps of the myocardium can be used as an index of water content. Regions with T2>40 ms (two standard deviations above normally perfused myocardium) were delineated as an index of edema.

Sprague-Dawley rats [4] = experiment: Echocardiography 4 weeks post-MI; assay type: in vivo, rat
Method: as §3
MI was induced in rats as described above. […] Tests were performed 24 hours post-MI induction. Four weeks post-MI, fraction shortening was assessed by echocardiography.

Sprague-Dawley rats [5] = experiment: Rat ischemia/reperfusion model (echocardiography, Evan's blue & TTC staining at 24 hours); assay type: in vivo; set-up: LVDd / LVDs / AAR: unit not given beside the values
Method: as §2, §3
To establish whether Src inhibition is beneficial following transient ischemia, rats were subjected to occlusion followed by reperfusion, and then evaluated for ventricular function and infarct size after 24 hours. […] Subjects were evaluated with echocardiography (FIGS. 13 and 18) and TTC staining (FIGS. 14 and 18) 24 hours after occlusion (Table 7).

mouse cardiac tissue = experiment: Ultrastructural analysis of cardiac tissue by electron microscopy after MI; assay type: in vivo; settings: 1.5 mg/kg 45 minutes following occlusion
Method: Cardiac tissue was prepared from mice following VEGF injection or 3-24 hours following ischemia and the infarct, the peri-infarct, and remote regions were sectioned. Tissue was fixed in 0.1 M sodium cacodylate buffer (pH 7.3) containing 4% paraformaldehyde+1.5% glutaraldehyde for 2 hours, transferred to 5% glutaraldehyde overnight, then 1% osmium tetroxide for 1 hour. Blocks were washed, dehydrated, cleared in propylene oxide, infiltrated with Epon/Araldite, and embedded in resin. Ultrathin sections were stained with uranyl acetate and lead citrate, and viewed using a Philips CM-100 transmission electron microscope.

[6] = tested on: Flk-cadherin-catenin complex; experiment: In vivo permeability model: immunoprecipitation/immunoblotting after VEGF injection; settings: mice pretreated before VEGF injection; FIG. 20D
Method: At the appropriate time, the heart was rapidly excised and homogenized in 3 ml RIPA lysis buffer as previously described (Eliceiri et al. Mol. Cell 4: 915-924 (1999)) and the protein concentration measured (BCA Protein Assay; Pierce, Rockford, Ill.).
Tissue lysates were prepared for immunoprecipitation and immunoblotting as previously described (Eliceiri et al. Mol. Cell 4: 915-924 (1999)) with antibodies from Santa Cruz Biotechnology (Santa Cruz, Calif.): Flk (sc315), VE-cadherin (sc6458), β-catenin (sc7963), and P-Tyrosine (sc7020 or sc508). Representative data from at least three separate experiments is shown.
(Data is representative of at least three experiments.)
Heart lysates prepared from animals injected with or without VEGF were subjected to immunoprecipitation with anti-Flk followed by immunoblotting for VE-cadherin and β-catenin. In control mice, a pre-existing complex between Flk, β-catenin, and VE-cadherin in blood vessels was observed. This complex was rapidly disrupted within 2-5 minutes following VEGF stimulation, and had reassembled by 15 minutes in blood vessels in vivo. The timescale of complex dissociation completely paralleled that of Flk, β-catenin, and VE-cadherin phosphorylation and the dissociation of β-catenin from VE-cadherin.

VEGF = experiment: Immunohistochemistry for VEGF in hearts 24 hours after MI; assay type: in vivo, rat; settings: 24 hours after induction of MI; FIGS. 2A and 2B
Method: FIGS. 2A and 2B show the results of an immunohistochemistry assay for VEGF on rat heart samples 24 hours after induction of myocardial infarction, with VEGF+ and ischemic regions indicated.

mice = settings: mouse, in vivo; cited from earlier work
[7] = tested on: 2-year-old C57 black mice; experiment: Survival after MI in 2-year-old mice
Method: 2-year-old C57/ByJ mice were used as a model of severe MI to test the effects of Src inhibition on survival. […] Adult male Sprague-Dawley rats (Harlan, Indianapolis, Ind.) and C57/ByJ mice (Jackson Laboratory, Bar Harbor, Me.) were maintained under approved protocols.
MI was induced in mice. […] Survival rates were assessed.
To evaluate survival after MI, 2-year-old C57 black mice were used as a model characterized by considerable mortality (>40%) after LAD ligation.

CML cells = settings: cited from earlier work
[8] = tested on: Src family kinases Lyn and/or Hck; settings: cited from earlier work
[9] = individual rat, 1.5 mg/kg i.p., 24 hours after occlusion, 1.5 mg/kg
[10] = individual rat, Table 8, listed as Src-I
[11] = individual rat, Table 8, MRI, listed as Src-I

SMILES: Cc1ccc(-c2nn(C(C)(C)C)c3ncnc(N)c23)cc1 [PP1]
- maximum inhibition in infarct size (Sprague-Dawley rats [1]; 1.5 mg/kg i.p. 45 minutes after MI induction, 24 hours post-MI, FIG. 5): 68%
- cardiac tissue 24 hours after induction of MI (Sprague-Dawley rats [1]; FIG. 1A vs 1B): cardioprotection
- smaller infarct size (maximum benefit) (Sprague-Dawley rats [1]; additional experiments, administration 45 minutes following occlusion, FIG. 17): 50%
- edema and infarct size, dose dependence (Sprague-Dawley rats [1]; additional experiments, maximum decrease at 1.5 mg/kg, FIGS. 15 and 16): dose-dependent decreases in edema and infarct size
- protection (infarct size) (Sprague-Dawley rats [1]; additional experiments, treatment after 6 hours, FIG. 17): 25%
- decrease in infarct size (Sprague-Dawley rats [1]; given six hours after LAD ligation, FIG. 7): 42%
- decrease in infarct size following permanent occlusion (Sprague-Dawley rats [1]; permanent occlusion, quoted for comparison with ischemia-reperfusion): 50%
- infarct size following permanent occlusion (Sprague-Dawley rats [1]; rat): significant reduction of infarct size
- infarct size following permanent occlusion (C57 black mice): significant reduction of infarct size
- decreased myocardial water content (Sprague-Dawley rats [2]; permanent MI, FIG. 8): 5%+/−1.3
- LV volumes with T2>40 ms versus vehicle treated rats (Sprague-Dawley rats [3]; 24 hours following permanent LAD occlusion, n=2, FIGS. 22A and 22B): a difference between LV volumes with T2>40 ms
- fractional shortening assessed by echocardiography (Sprague-Dawley rats [4]; 4 weeks post-MI, 1.5 mg/kg i.p., FIG. 11): 33.7%
- favorable effect on regional wall motion (Sprague-Dawley rats [4]; over 4 weeks, n=8): 9%
- favorable effect on systolic LV diameter (Sprague-Dawley rats [4]; over 4 weeks, n=8): 16%
- preservation of diastolic left ventricular diameter compared with untreated rats (Sprague-Dawley rats [4]; over 4 weeks, n=8): 11%
- preservation of fractional shortening compared with untreated rats (Sprague-Dawley rats [4]; over 4 weeks, n=8 each group): 46%
- % FS (echocardiography), group mean (Sprague-Dawley rats [5]; 1.5 mg/kg i.p., n=4, 24 hours): 30.6±3.16%
- % infarct/AAR, group mean (Sprague-Dawley rats [5]; 1.5 mg/kg i.p., n=4, 24 hours): 42.4±3.72 % of AAR
- Area at risk, group mean (Sprague-Dawley rats [5]; 1.5 mg/kg i.p., n=4, 24 hours): 36.1±9.61
- RWMS (echocardiography), group mean (Sprague-Dawley rats [5]; 1.5 mg/kg i.p., n=4, 24 hours): 18.5±0.58
- reduction in infarct size following ischemia-reperfusion (Sprague-Dawley rats [5]; FIG. 14): 18%
- % FS (Sprague-Dawley rats [5]; [9]): 34.9% and 28.7% and 27.8% and 30.9%
- AAR (Sprague-Dawley rats [5]; [9]): 32.9 and 27.2 and 34.4 and 49.7
- IA/AAR (Sprague-Dawley rats [5]; [9]): 42.1 and 42.4 and 47 and 37.9
- LVDd (Sprague-Dawley rats [5]; [9]): 0.729 and 0.737 and 0.877 and 0.797
- LVDs (Sprague-Dawley rats [5]; [9]): 0.475 and 0.525 and 0.633 and 0.551
- RWMS (Sprague-Dawley rats [5]; [9]): 18 (2×) and 19 (2×)
- vascular gaps (ultrastructure) (mouse cardiac tissue): did prevent vascular gaps
- Cardiac Damage (observations counted) (mouse cardiac tissue; 3 hr MI): 2
- EC Injury (observations counted) (mouse cardiac tissue; 3 hr MI): 14
- Platelet Activation & Adhesion (observations counted) (mouse cardiac tissue; 3 hr MI): 11
- EC Barrier Dysfunction (observations counted) (mouse cardiac tissue; 3 hr MI, approximately 250 microvessels): 2
- Cardiac Damage (observations counted) (mouse cardiac tissue; 24 hr MI): 9
- EC Barrier Dysfunction (observations counted) (mouse cardiac tissue; 24 hr MI): 0
- EC Injury (observations counted) (mouse cardiac tissue; 24 hr MI): 15
- Platelet Activation & Adhesion (observations counted) (mouse cardiac tissue; 24 hr MI): 1
- myocyte injury (ultrastructure) (mouse cardiac tissue; at 24 hours): significant reduction in myocyte injury
- Flk-cadherin-catenin complex after VEGF injection [6]: remains intact
- VEGF expression in the ischemic tissues (VEGF): did not interfere with VEGF expression
- ischemia and brain damage after stroke (mice): reduce ischemia and brain damage after stroke
- survival within the first 4 weeks ([7]; 1.5 mg/kg 45 minutes post-MI, n=12 each group): 91.7%
- four-week survival rate ([7]; 1.5 mg/kg, FIG. 10): 100%

SMILES: COc1cc(Nc2c(C#N)cnc3cc(OCCCN4CCN(C)CC4)c(OC)cc23)c(Cl)cc1Cl [SKI-606]
- Water Content, group mean (Sprague-Dawley rats [2]; SKI-606 study, Example 9): 76.7±2.01
- % water (Sprague-Dawley rats [2]; [10]): 78% and 74.4% and 74.1% and 79.1% and 78.7% and 76.6% and 75.8%
- MRI % T2>35, group mean (Sprague-Dawley rats [3]; SKI-606 study, Example 9): 18.4±8.85%
- (%) T2 > 35 (Sprague-Dawley rats [3]; [11]): 27.518% and 13.699% and 13.287% and 28.257% and 9.198%
- (%) T2 > 40 (Sprague-Dawley rats [3]; [11]): 17.955% and 5.743% and 7.537% and 19.466% and 5.719%
- T2 > 40 (Sprague-Dawley rats [3]; individual rat, Table 9 summary, listed as Src-I): 19.466 and 5.719 and 17.955 and 5.743 and 7.537
- decrease in infarct size in the ischemia-reperfusion model (Sprague-Dawley rats [5]; 5 mg/kg, FIG. 19): 43%
- % infarct/AAR, group mean (Sprague-Dawley rats [5]; SKI-606 study, Example 9): 54.8±2.45 % of AAR
- Area at risk, group mean (Sprague-Dawley rats [5]; SKI-606 study, Example 9): 37.9±2.76
- RWMS (echocardiography), group mean (Sprague-Dawley rats [5]; SKI-606 study, Example 9): 21.3±1.25
- fractional shortening and regional wall motion score (Sprague-Dawley rats [5]; after 24 hours, n=7 each group): favorably impacted fractional shortening and regional wall motion score
- % FS (Sprague-Dawley rats [5]; [10]): 21.6%
- AAR (Sprague-Dawley rats [5]; [10]): 38.6 and 35.2 and 36.7 and 42.3 and 36.5
- Dd (Sprague-Dawley rats [5]; [10]): 0.873 and 0.881 and 0.703 and 0.805 and 0.865 and 0.669 and 0.89
- Ds (Sprague-Dawley rats [5]; [10]): 0.661 and 0.669 (3×) and 0.619 and 0.678 and 0.513
- IA/AAR (Sprague-Dawley rats [5]; [10]): 58.6 and 55.5 and 54.5 and 52.4 and 53
- RW MS (Sprague-Dawley rats [5]; [10]): 20 (2×) and 21 (3×) and 23 (2×)
- antiproliferative activity against CML cells in culture (CML cells): potent antiproliferative activity
- phosphorylation of the autoactivation site of Lyn and/or Hck [8]: reduces phosphorylation
